Patent US20160274087A1, “SCREENING ASSAY FOR AGENTS THAT INFLUENCE BETA CELL NUMBER AND/OR PHENOTYPE” (VRIJE UNIVERSITEIT BRUSSEL, priority 2013, published 2016)

B1: GDF11: secretory factor added to beta cell culture (10 nM) (protein, UniProt O95390 299-407, looked up)
Growth/differentiation factor …: NLGLDCDEHSSESRCCRYPLTVDFEAFGWDWIIAPKRYKANYCSGQCEYMFMQKYPHTHLVQQANPRGSAGPCCTPTKMSPINMLYFNDKQQIIYGKIPGMVVDRCGCS

Key:
[1] = system: GR trans-repression and trans-activation targets, cell cycle genes and beta cell phenotype markers; assay: Q-PCR of mRNA levels in cultured beta cells; type: cell-based, rat; conditions: 9 days culture; 1 μM 6MP, 1 μM MIF, 0.5 μM CPA; vehicle = 1.0
[2] = system: rat beta cells; assay: Number of living beta cells in culture (Hoechst 33342/propidium iodide whole-well imaging counts; expansion assay); type: cell-based; conditions: for concentration giving maximal inhibition / prevention of DEX-stimulated increase of beta cell numbers: with 0.01 μM DEX, d1 to d15; for Number of Living Cells on Day 15 (% of Day 1): control 101 ± 7
Method: Beta cells were FACS-purified from islet-cell enriched suspensions (Pipeleers et al., 1985) prepared from neonatal (2-3 days-old) and adolescent or adult (8 or 40-week-old, male) Wistar rats (Janvier Bioservices, France); their purity was, respectively 70-75% and over 90%. Sorted cells were counted in a hemocytometer, seeded (day 0) and cultured for up to 15 days in serum-free Ham's-F10 medium at 5, 10 or 20 mmol/l glucose, supplemented with 2 mmol/l L-glutamine, 50 μM 3-isobutyl-1-methylxanthine, 0.5% Albumax-I, penicillin (100 U/ml) and streptomycin (0.1 mg/ml). The 10 mmol/l glucose condition is known to maintain beta cell survival over 9-days (Ling et al., 1994; Ling and Pipeleers, 1994). Medium and cells were retrieved after selected culture periods and assayed for insulin content; data were expressed as a function of the number of living beta cells that was determined in parallel wells.
On day 1, 9 and 15 of culture, total numbers of living beta cells per well were determined by semi-automatic cell count, after Hoechst 33342 (Ho) and propidium iodide (PI) staining. Numbers of living beta cells were obtained by subtracting the PI-positive cell numbers from the Ho-positive cell numbers, and correcting for the percent insulin-negative cells, as determined following insulin-immunofluorescence staining. They were expressed as percent of the numbers on day 1. Each condition was also evaluated for increases in the percentage of proliferating beta cells (incorporating the thymidine-analogue 5-ethynyl-2′-deoxyuridine, EdU; 100 μmol/l). To detect beta cells that underwent two successive cycles, cells were sequentially exposed to two different thymidine-analogs, first EdU from day 3 to 6, and then BrdU (100 μmol/l) from day 7 to 10, with a 24-hour label-free period in between. EdU-positive (EdU^+) nuclei were detected with the Click-iT Assay kit (Invitrogen), while BrdU-positive (BrdU^+) nuclei were identified with anti-BrdU antibody.
Absolute number of cells was determined by whole-well imaging using the BD-PathwayBioimager855 (BD-Biosciences). IPLab and AttoVision software packages (BD-Biosciences) were used for image background subtraction, segmentation and quantification.
Experimental procedures for isolation of beta cells from neonatal (2-3 days old) and adult (8 or 40 week old, male) Wistar rats (Janvier Bioservices, France) and analysis of their number, viability and proliferation activity in culture have been described before (Assefa et al., 2014). Sorted beta cells were seeded in 804G matrix-coated plates (designated as day 0) and the numbers and viability of seeded cells at the start of all experiments were determined on day 1 (24 h after seeding). The cells were cultured in control medium, which is a serum-free Ham's F10 medium supplemented with 2 mM L-glutamine, 50 μM 3-isobutyl-1-methylxanthine, 0.5% Albumax I, penicillin (100 U/ml), streptomycin (0.1 mg/ml) and, unless indicated otherwise, 10 mM glucose.
Sorted beta cells were seeded in 384-well or 6-well plates coated with 804G matrix, and kept in culture for up to 15 days at 37° C. 5% CO2 using Ham F10 supplemented with 1 mM L-glutamine, 0.1 mg/ml streptomycin, 0.075 mg/ml penicillin, 50 μM of isobutyl-1-methylxanthine (IBMX) at 10 mM D-glucose with and without synthetic GCs (6 methyl-prednisolone (6MP), dexamethasone (DEX), GR-modulators (compound A (CPA), mifepristone (MIF), and NFκB inhibitors (JSH-23 en Bay11-7085). Total cell number and beta cell viability was evaluated after incubation with Hoechst 33342 and propidium iodide. All chemicals were from Sigma Life Sciences or Merck. Quantification of cell numbers and analysis of beta-cell viability was done using the Pathway Bioimager (BD Biosciences) and using IPlab and Attovision software for background subtraction as described prior (Assefa et al., 2014).

[3] = control medium + compound 1 μM, 15 days

Molecule | CDK4 mRNA level (ΔΔCt values relative to basal vehicle control) [1] | CXCL11 mRNA level (ΔΔCt values relative to basal vehicle control) [1] | Cyclin B1 mRNA level (ΔΔCt values relative to basal vehicle control) [1] | Cyclin B2 mRNA level (ΔΔCt values relative to basal vehicle control) [1] | CyclinD1 mRNA level (ΔΔCt values relative to basal vehicle control) [1] | DLK1 mRNA level (ΔΔCt values relative to basal vehicle control) [1] | FKBP4 mRNA level (ΔΔCt values relative to basal vehicle control) [1] | FKBP5 mRNA level (ΔΔCt values relative to basal vehicle control) [1] | MKP1 mRNA level (ΔΔCt values relative to basal vehicle control) [1] | MafA mRNA level (ΔΔCt values relative to basal vehicle control) [1] | MafB mRNA level (ΔΔCt values relative to basal vehicle control) [1] | NPY mRNA level (ΔΔCt values relative to basal vehicle control) [1] | NR3C1 mRNA level (ΔΔCt values relative to basal vehicle control) [1] | Pdx1 mRNA level (ΔΔCt values relative to basal vehicle control) [1] | concentration giving maximal inhibition / prevention of DEX-stimulated increase of beta cell numbers [2] | Number of Living Cells on Day 15 (% of Day 1) [2, 3] | also measured
CNCC(Cl)c1ccc(OC(C)=O)cc1.Cl (stereo not drawn) [CPA] | 1.1 ± 0.2 | 1.1 ± 0.3 | 0.8 ± 0.4 | 0.5 ± 0.1^2 | 0.7 ± 0.1^1 | 1.4 ± 0.4 | 0.9 ± 0.2 | 1.3 ± 0.1 | 2.7 ± 1.1 | 0.4 ± 0.1^3 | 1.4 ± 0.5 | 1.1 ± 0.3 | 1.0 ± 0.1 | 0.8 ± 0.1 | 0.5 µM |  | Cyclin E1 mRNA level (ΔΔCt values relative to basal vehicle control) [1]: 1.0 ± 0.1; GDF11 mRNA level (ΔΔCt values relative to basal vehicle control) [1]: 0.7 ± 0.1; ICAM1 mRNA level (ΔΔCt values relative to basal vehicle control) [1]: 0.3 ± 0.1^3; NNAT mRNA level (ΔΔCt values relative to basal vehicle control) [1]: 0.6 ± 0.1; TRH mRNA level (ΔΔCt values relative to basal vehicle control) [1]: 1.2 ± 0.6; change of beta cell numbers between day 1 and 15 ([2]; 6MP 1 μM, DEX 0.01 μM, CPA 0.5 μM): no change of beta cell numbers
CC(=O)S[C@@H]1CC2=CC(=O)CC[C@]2(C)[C@H]2CC[C@@]3(C)[C@@H](CC[C@@]34CCC(=O)O4)[C@H]12 [Spironolactone, spironolactone] |  |  |  |  |  |  |  |  |  |  |  |  |  |  |  | 105 ± 5 % of Day 1 | 
C[C@]12CCC(=O)C=C1CC[C@@H]1[C@@H]2[C@@H](O)C[C@]2(C=O)[C@@H](C(=O)CO)CC[C@@H]12 [Aldosterone, aldosterone] |  |  |  |  |  |  |  |  |  |  |  |  |  |  |  |  | Number of Living Cells on Day 15 (% of Day 1) ([2]; control medium + compound 0.1 μM, 15 days): 112 ± 5 % of Day 1
CC#C[C@]1(O)CC[C@H]2[C@@H]3CCC4=CC(=O)CCC4=C3[C@@H](c3ccc(N(C)C)cc3)C[C@@]21C [MIF, mifepristone] | 1.3 ± 0.2 | 1.5 ± 0.6 | 1.0 ± 0.3 | 0.6 ± 0.1^1 | 1.0 ± 0.1 | 0.9 ± 0.2 | 0.7 ± 0.2 | 0.7 ± 0.2 | 1.3 ± 0.0 | 1.1 ± 0.3 | 0.6 ± 0.2 | 0.8 ± 0.0 | 1.1 ± 0.1 | 1.1 ± 0.3 | 0.1 µM | 104 ± 5 % of Day 1 | effect on 6MP/DEX-stimulated increase of cell numbers ([2]; MIF 1 μM): inhibited
B1 |  |  |  |  |  |  |  |  |  |  |  |  |  |  |  |  | effect on cell numbers in combination with 6MP ([2]; 15 days, 6MP 1 μM, GDF11 10 nM, TRH 5 nM): suppressed proliferation; effect on cell numbers under basal conditions ([2]; 15 days, DLK1 0.5 μM, GDF11 10 nM, TRH 5 nM): modest increase of cell numbers
